Experimental findings from patent publication US11912755B2, “Endostatin fragments and variants for use in treating fibrosis” (iBio, Inc., priority 2015, dated 2024) are described below.

Entries after “also recorded” stand apart in the source; their conditions may differ. Ends that are not written are not given here.

The subject of test [1] is HGF. The experiment in a line: Genes regulated by E4: HGF. It is filed as cell-based, human. Conditions: HuF-T and mouse bleomycin model of pulmonary fibrosis; RT-qPCR, protein expression. The protocol:
(§1) Several experiments have been performed to identify the mechanisms by which E4 exerts its anti-fibrotic activity. Real-time quantitative PCR (qPCR)-based arrays were performed on RNA extracted from primary human lung fibroblasts or mouse lung tissue stimulated with various fibrotic triggers in the absence and presence of E4 treatment in order to identify genes influenced by the endostatin peptide.
(§2) The arrays identified several genes that have been previously implicated in fibrosis to be influenced by E4 treatment. These genes included connective tissue growth factor (CTGF), insulin-like growth factor binding protein (IGFBP)-3, matrix metalloproteases (MMP)-1 and MMP-3, urokinase plasminogen activator (uPA), plasminogen activator inhibitor (PAI)-1, and hepatocyte growth factor (HGF) with levels either decreased or increased in the presence of E4 as shown in TABLE 5.
In general terms: Quantitative PCR measures a nucleic acid by following its amplification.

Test [2] deals with TGF-β-induced dermal fibrosis in mouse skin. Briefly: In vivo TGF-β-induced dermal fibrosis in mouse skin. The protocol:
In Vivo Mouse Experiments. CB57BL6/J male mice were purchased from The Jackson Laboratory (Bar Harbor, ME). Human rE (10 μg/ml) or Endostatin peptides (10 μg/ml) in combination with TGF-β (10 ng/ml), or TGF-β alone were injected intradermally on the back of mice in a total volume of 100 μl 1×PBS. Mice were injected in two different skin sites and sacrificed one week post-injection. Skin surrounding the injection site was harvested and fixed in 10% formalin prior to embedding in paraffin.
Measurement of Skin Dermal Thickness. Six μm sections of paraffin-embedded human and mouse skin tissues were stained with hematoxylin and eosin (H&E). In some experiments, sections were stained with Masson trichrome which identifies collagens. Images were taken on a Nikon Eclipse 800 microscope. The thickness of the dermis was measured in 6 random fields of each section using the image/J® software. Data are shown in arbitrary units.
E4, a peptide representing the carboxy terminus of human endostatin, can attenuate fibrosis triggered by multiple fibrogenic factors. The anti-fibrotic effects of E4 can be detected whether administered concomitantly with or following the fibrogenic trigger. The efficacy of E4 was confirmed in […] pre-clinical models of fibrosis: a) bleomycin-induced dermal fibrosis in vivo in mouse skin, b) TGF-β induced dermal fibrosis in mouse skin, and c) bleomycin-induced pulmonary fibrosis. E4 peptide or a control peptide (E1; representing the amino terminal region of endostatin) were administered at the same time as TGF-β or bleomycin or 3-4 days following TGF-β or bleomycin. Mice were sacrificed one and two weeks after TGF-β-initiation of dermal fibrosis, and two and three weeks after bleomycin-induced pulmonary fibrosis. Two different modes of administration of the E4 peptide were also tested. It was confirmed that intraperitoneal and intratracheal administration was effective. The amount of E4 that was administered was 10 μg/ml in a total volume of 100 μl for skin and IP injections and 50 μl for IT administration.
(§3) For these studies, fibrosis was assessed by measurement of dermal thickness on H&E skin sections (skin), assessment of collagen levels by Masson Trichrome staining (skin and lung), and measurement of collagen levels by Sircol assay (lung). Furthermore, to confirm the mechanism by which E4 exerts its anti-fibrotic effects, the production of extra-cellular matrix (ECM) components, the levels of enzymes that promote matrix stabilization and thus accumulation and levels of those that degrade ECM components, and levels of transcription factors downstream of the pro-fibrotic triggers were evaluated. Results were assessed using the unpaired t test and the 3-way ANOVA (for the ID1 data).

Test [3] concerns MMP-2. Briefly: Gelatin zymography of MMP-2 in primary human lung fibroblasts. The settings on record: for MMP-2 activity: E-4 following TGF-β. The class given is cell-based. From the text:
FIG. 14A-14B. FIG. 14A: E4 reduces fibrosis in vitro by inducing MMP-2 activity in primary human lung fibroblasts, thus resulting in increased degradation of collagen and other matrix proteins. […] Lane 1: Vehicle (DMSO); Lane 2: E-4; Lane 3: TGF-β; Lane 4: TGF-β followed by E4. FIG. 14B: Digital image showing that both total and active MMP-2 levels are increased in cells treated with TGF-β and E-4.

Test [4] has as its system MMP-3. The experiment in a line: Genes regulated by E4: MMP-3. It is filed as cell-based, human. Conditions: HuF-T; RT-qPCR, protein expression levels, zymography. As to the method:
as §1, §2

The subject of test [5] is bleomycin induced dermal fibrosis. The experiment in a line: Bleomycin-induced dermal fibrosis in mouse skin. Conditions: single administration of E4 10 μg/ml on first day, daily bleomycin; skin harvested after 10 days. The class given is in vivo. As to the method:
FIGS. 8A-8B. The effect of endostatin E-4 on bleomycin induced dermal fibrosis in vivo. FIG. 8A: Mice were injected subcutaneously with 1×PBS as vehicle (V) or Bleomycin (Bleo; 20 μg/mouse) daily. E-4 (10 μg/ml) was mixed with bleomycin on the first day, and daily bleomycin administration was continued without subsequent injections of E4 (Bleo+E-4). Skin was harvested after 10 days. Sections were stained with H&E. Magnification, 100×. Data represent three independent experiments. Mann-Whitney U test was used for statistical analysis. * P<0.001, **P<0.00001.
E4, a peptide representing the carboxy terminus of human endostatin, can attenuate fibrosis triggered by multiple fibrogenic factors. The anti-fibrotic effects of E4 can be detected whether administered concomitantly with or following the fibrogenic trigger. The efficacy of E4 was confirmed in […] pre-clinical models of fibrosis: a) bleomycin-induced dermal fibrosis in vivo in mouse skin, b) TGF-β induced dermal fibrosis in mouse skin, and c) bleomycin-induced pulmonary fibrosis. […]
For these studies, fibrosis was assessed by measurement of dermal thickness on H&E skin sections (skin), assessment of collagen levels by Masson Trichrome staining (skin and lung), and measurement of collagen levels by Sircol assay (lung). […] Results were assessed using the unpaired t test and the 3-way ANOVA (for the ID1 data).

Test [6] has as its system bleomycin induced lung fibrosis. Briefly: Bleomycin-induced pulmonary fibrosis in mice (E4). The class given is in vivo, mouse. The protocol:
FIG. 10A-10C. E4 attenuates bleomycin induced lung fibrosis in vivo. FIG. 10A: Sixty μg of bleomycin was administrated intratracheally in combination with DMSO as a vehicle (Bleo) or E-4 (Bleo+E-4; 10 μg/ml). In some mice, E-4 (10 μg/ml) was administered intratracheally (IT) three days following bleomycin treatment (Bleo+E-4L). PBS was used as a vehicle for bleomycin (V). Lungs were harvested 10 days post-treatment. Representative images stained with H&E (left panel) and Masson trichrome (right panel) are representative of 3 independent experiments. Magnification, 100×. […] FIG. 10B: Quantification of acid soluble collagen obtained from mouse lungs treated with V. Bleo, Bleo+E-4, and Bleo+E-4L. The levels of collagen are presented as μg/mg (lung) from three independent experiments. Unpaired-t test was used for statistical analysis. *P<0.05. […] FIG. 10C: Lower magnification (2×) of mouse lung shown in FIG. 9 (BLM+E4/E4L IT day 10). For Bleo+E4L, Bleo was administered first, then there was a lag of three days between Bleo and E4 administration).
FIG. 11. […]
E4, a peptide representing the carboxy terminus of human endostatin, can attenuate fibrosis triggered by multiple fibrogenic factors. The anti-fibrotic effects of E4 can be detected whether administered concomitantly with or following the fibrogenic trigger. […]
as §3

For the substance “E4: SEQ ID NO: 21, amino acids 133-180 of human endostatin with a C-terminal amide (SYCETWRTEAPSATGQASSLLGGRLLGQSAASCHHAYIVLCIENSFMT-NH2; cysteine pairing not given here)”, the “Effect of E4 peptide on HGF” value in test [1] is recorded as “induces conversion of pro-HGF to its active chains; also recorded: Increase”. Besides, in test [2] (10 μg/ml intradermal with TGF-β 10 ng/ml, one week), the “TGF-β-induced dermal fibrosis (dermal thickness)” value is on record as “prevented”. Besides, the “TGF-β induced dermal fibrosis, delayed treatment” value in test [2] (TGF-β day 1, peptide IP at day 3, harvested day 7) was “significant decrease”. In addition, the MMP-2 activity result in test [3] was “induction and activation”; in test [3] (listed as E-4), “increased MMP-2 activity”. The “total and active MMP-2 levels” value in test [3] (cells treated with TGF-β and E-4) is “increased”. The “Effect of E4 peptide on MMP-3” value in test [4] is “increased levels and activity; also recorded: Increase”. Also, the “bleomycin induced dermal fibrosis” value in test [5] is “significant attenuation”. Also, the “fibrosis and Masson Trichrome staining in lung” value in test [6] (E4 10 μg/ml IT concomitantly with or three days following bleomycin, day 10) is on record as “marked reduction”. Further, in test [6] (E4 given 3 days after bleomycin, acid soluble collagen), the “collagen levels in mouse lungs” value was “significantly reduced”. Moreover, the “bleomycin induced lung fibrosis on day 21” value in test [6] (bleomycin IT day 1, E4 IP or IT at day 3) is reported as “significant attenuation”.
